Results taken from PMC5218480 (PLoS ONE, 2017).

System: MV-4-11 cells
Assay: Gene expression microarray analysis (Affymetrix PrimeView) and GSEA
Type: cell-based, human
Set-up: RFU PODN (11730768_x_at) / Fold change /veh PODN (11730768_x_at) / RFU LINC00158 (11744669_a_at) / Fold change /veh LINC00158 (11744669_a_at) / RFU DUSP10 (11751237_a_at) / Fold change /veh DUSP10 (11751237_a_at) / RFU ID3 (11757404_x_at) / Fold change /veh ID3 (11757404_x_at) / RFU PLEKHG5 (11737974_s_at) / Fold change /veh PLEKHG5 (11737974_s_at) / RFU LRRC4B (11730491_at) / Fold change /veh LRRC4B (11730491_at) / RFU GIMAP4 (11747438_a_at) / Fold change /veh GIMAP4 (11747438_a_at) / RFU KRT8 (11758183_x_at) / Fold change /veh KRT8 (11758183_x_at) / RFU CNN1 (11734310_a_at) / Fold change /veh CNN1 (11734310_a_at) / RFU VPS37D (11726825_at) / Fold change /veh VPS37D (11726825_at) / RFU C10orf10 (11716522_x_at) / Fold change /veh C10orf10 (11716522_x_at) / RFU KIR2DL2 /// KIR2DL4 /// KIR2DL5A /// KIR2DL5B /// KIR2DS1 /// KIR2DS2 /// KIR2DS3 /// KIR2DS4 /// KIR3DL3 /// KIR3DL3 /// KIR3DS1 (11738374_at) / Fold change /veh KIR2DL2 /// KIR2DL4 /// KIR2DL5A /// KIR2DL5B /// KIR2DS1 /// KIR2DS2 /// KIR2DS3 /// KIR2DS4 /// KIR3DL3 /// KIR3DL3 /// KIR3DS1 (11738374_at) / RFU C1QL1 (11718748_at) / Fold change /veh C1QL1 (11718748_at) / RFU TMPRSS4 (11747572_a_at) / Fold change /veh TMPRSS4 (11747572_a_at) / RFU HAMP (11756126_x_at) / Fold change /veh HAMP (11756126_x_at) / RFU RNFT2 (11725882_a_at) / Fold change /veh RNFT2 (11725882_a_at) / RFU NR4A2 (11747474_a_at) / Fold change /veh NR4A2 (11747474_a_at) / RFU ABCC12 (11746883_a_at) / Fold change /veh ABCC12 (11746883_a_at) / RFU TMEM136 (11760407_x_at) / Fold change /veh TMEM136 (11760407_x_at) / RFU CLDN22 /// WWC2 (11732394_at) / Fold change /veh CLDN22 /// WWC2 (11732394_at) / RFU HLA-DPB1 (11760878_x_at) / Fold change /veh HLA-DPB1 (11760878_x_at) / RFU SPINT1 (11716480_a_at) / Fold change /veh SPINT1 (11716480_a_at) / RFU GAP43 (11754022_s_at) / Fold change /veh GAP43 (11754022_s_at) / RFU A4GNT (11735810_at) / Fold change /veh A4GNT (11735810_at) / RFU PRB3 (11715151_x_at) / Fold change /veh PRB3 (11715151_x_at) / RFU TUBB4B (11761932_at) / Fold change /veh TUBB4B (11761932_at) / RFU CAPN14 (11732068_a_at) / Fold change /veh CAPN14 (11732068_a_at) / RFU TMCC2 (11721928_a_at) / Fold change /veh TMCC2 (11721928_a_at) / RFU IRGQ (11745062_a_at) / Fold change /veh IRGQ (11745062_a_at) / RFU FAM174B (11720279_a_at) / Fold change /veh FAM174B (11720279_a_at) / RFU TMPRSS4 (11748680_a_at) / Fold change /veh TMPRSS4 (11748680_a_at) / RFU FAM212B (11763350_a_at) / Fold change /veh FAM212B (11763350_a_at) / RFU PLEKHG5 (11743358_a_at) / Fold change /veh PLEKHG5 (11743358_a_at) / RFU ZSCAN30 (11745921_a_at) / Fold change /veh ZSCAN30 (11745921_a_at) / RFU CMKLR1 (11741424_a_at) / Fold change /veh CMKLR1 (11741424_a_at) / RFU LOC101060620 /// MAPK8IP1 (11723275_at) / Fold change /veh LOC101060620 /// MAPK8IP1 (11723275_at) / RFU SPTSSB (11747773_x_at) / Fold change /veh SPTSSB (11747773_x_at) / RFU PRSS12 (11739890_at) / Fold change /veh PRSS12 (11739890_at) / RFU BIN1 (11741810_x_at) / Fold change /veh BIN1 (11741810_x_at) / RFU WNT11 (11732464_a_at) / Fold change /veh WNT11 (11732464_a_at) / RFU C10orf10 (11716521_a_at) / Fold change /veh C10orf10 (11716521_a_at) / RFU C5orf56 (11738089_at) / Fold change /veh C5orf56 (11738089_at) / RFU CYB561 (11721691_x_at) / Fold change /veh CYB561 (11721691_x_at) / RFU ANKRD19P (11752326_a_at) / Fold change /veh ANKRD19P (11752326_a_at) / RFU OR2T12 /// OR2T33 /// OR2T8 (11738714_s_at) / Fold change /veh OR2T12 /// OR2T33 /// OR2T8 (11738714_s_at) / RFU VCAN (11748164_a_at) / Fold change /veh VCAN (11748164_a_at) / RFU JSRP1 (11732532_at) / Fold change /veh JSRP1 (11732532_at) / RFU KRTAP10-11 (11738290_x_at) / Fold change /veh KRTAP10-11 (11738290_x_at) / RFU MYO3A (11730013_a_at) / Fold change /veh MYO3A (11730013_a_at) / RFU EBF3 (11725865_a_at) / Fold change /veh EBF3 (11725865_a_at) / RFU CAMK2N1 (11719241_x_at) / Fold change /veh CAMK2N1 (11719241_x_at) / RFU C5orf56 (11738088_a_at) / Fold change /veh C5orf56 (11738088_a_at) / RFU OLFML3 (11715873_a_at) / Fold change /veh OLFML3 (11715873_a_at) / RFU LOC100653217 /// NTM (11731650_a_at) / Fold change /veh LOC100653217 /// NTM (11731650_a_at) / RFU MAPK11 (11762145_a_at) / Fold change /veh MAPK11 (11762145_a_at) / RFU FIZ1 (11724087_x_at) / Fold change /veh FIZ1 (11724087_x_at) / RFU OASL (11726364_x_at) / Fold change /veh OASL (11726364_x_at) / RFU SOX15 (11748057_x_at) / Fold change /veh SOX15 (11748057_x_at) / RFU CD79A (11719716_a_at) / Fold change /veh CD79A (11719716_a_at) / RFU HIST1H1D (11736915_at) / Fold change /veh HIST1H1D (11736915_at) / RFU CASKIN2 (11723855_a_at) / Fold change /veh CASKIN2 (11723855_a_at) / RFU LOC730098 (11760151_x_at) / Fold change /veh LOC730098 (11760151_x_at) / RFU OR4N2 (11742367_at) / Fold change /veh OR4N2 (11742367_at) / RFU PRRT2 (11749266_a_at) / Fold change /veh PRRT2 (11749266_a_at) / RFU SNX32 (11753110_a_at) / Fold change /veh SNX32 (11753110_a_at) / RFU CDHR5 (11726645_a_at) / Fold change /veh CDHR5 (11726645_a_at) / RFU RCAN1 (11760418_a_at) / Fold change /veh RCAN1 (11760418_a_at) / RFU FAM167A (11723789_a_at) / Fold change /veh FAM167A (11723789_a_at) / RFU FAM26E (11764081_at) / Fold change /veh FAM26E (11764081_at) / RFU ISYNA1 (11749810_s_at) / Fold change /veh ISYNA1 (11749810_s_at) / RFU ACY1 (11761880_at) / Fold change /veh ACY1 (11761880_at) / RFU 11764098_at / Fold change /veh 11764098_at / RFU SAMD14 (11745864_x_at) / Fold change /veh SAMD14 (11745864_x_at) / RFU NPB (11741838_a_at) / Fold change /veh NPB (11741838_a_at) / RFU TMPRSS6 (11731388_a_at) / Fold change /veh TMPRSS6 (11731388_a_at) / RFU KRTAP10-2 (11738614_at) / Fold change /veh KRTAP10-2 (11738614_at) / RFU ARHGAP8 /// PRR5-ARHGAP8 (11727945_x_at) / Fold change /veh ARHGAP8 /// PRR5-ARHGAP8 (11727945_x_at) / RFU KRTAP5-7 /// NADSYN1 (11734609_at) / Fold change /veh KRTAP5-7 /// NADSYN1 (11734609_at) / RFU RASL12 (11751679_a_at) / Fold change /veh RASL12 (11751679_a_at) / RFU CDKN2B (11736163_a_at) / Fold change /veh CDKN2B (11736163_a_at) / RFU PRF1 (11729649_at) / Fold change /veh PRF1 (11729649_at) / RFU, ZNF638 /// ZNF638-IT1 / Fold change vs veh, ZNF638 /// ZNF638-IT1 / RFU, PANK3 / Fold change vs veh, PANK3 / RFU, SH3YL1 / Fold change vs veh, SH3YL1 / RFU, ZEB2 / Fold change vs veh, ZEB2 / RFU, NRIP1 / Fold change vs veh, NRIP1 / RFU, PTTG1IP / Fold change vs veh, PTTG1IP / RFU, CAPN2 / Fold change vs veh, CAPN2 / RFU, MED14 / Fold change vs veh, MED14 / RFU, SNORA58 / Fold change vs veh, SNORA58 / RFU, C1orf63 / Fold change vs veh, C1orf63 / RFU, LRRFIP1 / Fold change vs veh, LRRFIP1 / RFU, NDUFAF7 / Fold change vs veh, NDUFAF7 / RFU, SLC12A2 / Fold change vs veh, SLC12A2 / RFU, IBTK / Fold change vs veh, IBTK / RFU, ESF1 / Fold change vs veh, ESF1 / Fold change vs veh, TMEM50B / RFU, TAOK1 / Fold change vs veh, TAOK1 / RFU, ACBD3 / Fold change vs veh, ACBD3 / RFU, TMA16 / Fold change vs veh, TMA16 / RFU, RWDD3 / Fold change vs veh, RWDD3 / RFU, BCAT1 / Fold change vs veh, BCAT1 / RFU, EDEM3 / Fold change vs veh, EDEM3 / RFU, TMEM33 / Fold change vs veh, TMEM33 / RFU, WDR75 / Fold change vs veh, WDR75 / RFU, AHCTF1 / Fold change vs veh, AHCTF1 / RFU, TFRC / Fold change vs veh, TFRC / RFU, ZDHHC17 / Fold change vs veh, ZDHHC17 / RFU, NOM1 / Fold change vs veh, NOM1 / RFU, ARL8B / Fold change vs veh, ARL8B / RFU, ZBTB11 / Fold change vs veh, ZBTB11 / RFU, TAMM41 / Fold change vs veh, TAMM41 / RFU, KIAA1704 /// LOC100996395 / Fold change vs veh, KIAA1704 /// LOC100996395 / RFU, ING1 / Fold change vs veh, ING1 / RFU, TRMT61B / Fold change vs veh, TRMT61B / RFU, FUBP3 / Fold change vs veh, FUBP3 / RFU, TP53 / Fold change vs veh, TP53 / RFU, TNKS2 / Fold change vs veh, TNKS2 / RFU, ZFP14 / Fold change vs veh, ZFP14 / RFU, ACTR2 / Fold change vs veh, ACTR2 / RFU, PPP3R1 / Fold change vs veh, PPP3R1 / RFU, PIK3R1 / Fold change vs veh, PIK3R1 / RFU, HNRNPA1 / Fold change vs veh, HNRNPA1 / RFU, RNF170 / Fold change vs veh, RNF170 / RFU, ZNF28 / Fold change vs veh, ZNF28 / RFU, RNGTT / Fold change vs veh, RNGTT / RFU, OGT / Fold change vs veh, OGT / RFU, BRD1 / Fold change vs veh, BRD1 / RFU, MARS / Fold change vs veh, MARS / RFU, ZNF655 / Fold change vs veh, ZNF655 / RFU, FAHD1 / Fold change vs veh, FAHD1 / RFU, BDP1 / Fold change vs veh, BDP1 / RFU, LRRCC1 / Fold change vs veh, LRRCC1 / RFU, ARID1A / Fold change vs veh, ARID1A / RFU, ZNF146 / Fold change vs veh, ZNF146 / RFU, ZNF330 / Fold change vs veh, ZNF330 / RFU, GPN3 / Fold change vs veh, GPN3 / RFU, C9orf123 / Fold change vs veh, C9orf123 / RFU, N4BP2L2 / Fold change vs veh, N4BP2L2 / RFU, ARFIP1 / Fold change vs veh, ARFIP1 / RFU, FAM179B / Fold change vs veh, FAM179B / RFU, BCL10 / Fold change vs veh, BCL10 / RFU, UHRF1BP1L / Fold change vs veh, UHRF1BP1L / RFU, BET1 / Fold change vs veh, BET1 / RFU, CNOT2 / Fold change vs veh, CNOT2 / RFU, ZNF268 / Fold change vs veh, ZNF268 / Fold change vs veh, ZNF507 / RFU, DGCR2 / Fold change vs veh, DGCR2 / RFU, WDSUB1 / Fold change vs veh, WDSUB1 / Fold change vs veh, HSP90B1 /// MIR3652 / RFU, ADSS / Fold change vs veh, ADSS / RFU, GK / Fold change vs veh, GK / RFU, ZNF148 / Fold change vs veh, ZNF148 / RFU, TAF9 / Fold change vs veh, TAF9 / RFU, SLC1A5 / Fold change vs veh, SLC1A5 / RFU, SLMO2 / Fold change vs veh, SLMO2 / RFU, ABCC4 / Fold change vs veh, ABCC4 / RFU, LOC101060439 /// RAP1B / Fold change vs veh, LOC101060439 /// RAP1B / RFU, RFX7 / Fold change vs veh, RFX7 / RFU, GTPBP10 / Fold change vs veh, GTPBP10 / RFU, CNEP1R1 / Fold change vs veh, CNEP1R1 / RFU, BIVM-ERCC5 /// ERCC5 / Fold change vs veh, BIVM-ERCC5 /// ERCC5 / RFU, ILF3 / Fold change vs veh, ILF3 / RFU 11762660_at / Fold change /veh 11762660_at / RFU VCAN (11757783_s_at) / Fold change /veh VCAN (11757783_s_at) / RFU DDX43 (11728927_at) / Fold change /veh DDX43 (11728927_at) / RFU KRT8 (11758188_x_at) / Fold change /veh KRT8 (11758188_x_at) / RFU NKD1 (11759106_at) / Fold change /veh NKD1 (11759106_at) / RFU SRD5A1 (11742802_a_at) / Fold change /veh SRD5A1 (11742802_a_at) / RFU TPSAB1 /// TPSB2 (11721975_s_at) / Fold change /veh TPSAB1 /// TPSB2 (11721975_s_at) / RFU GSTM3 (11746129_a_at) / Fold change /veh GSTM3 (11746129_a_at) / RFU IL23R (11737362_x_at) / Fold change /veh IL23R (11737362_x_at) / RFU TMEM51 (11727254_a_at) / Fold change /veh TMEM51 (11727254_a_at) / RFU PIWIL2 (11732686_x_at) / Fold change /veh PIWIL2 (11732686_x_at) / RFU ORM1 (11744905_x_at) / Fold change /veh ORM1 (11744905_x_at) / RFU CCDC152 (11743942_at) / Fold change /veh CCDC152 (11743942_at) / RFU ECM1 (11717891_a_at) / Fold change /veh ECM1 (11717891_a_at) / RFU IL23R (11748794_a_at) / Fold change /veh IL23R (11748794_a_at) / RFU TNFAIP8L3 (11732012_x_at) / Fold change /veh TNFAIP8L3 (11732012_x_at) / RFU MBOAT4 (11741988_at) / Fold change /veh MBOAT4 (11741988_at) / RFU 11764193_at / Fold change /veh 11764193_at / RFU TMEM53 (11763286_at) / Fold change /veh TMEM53 (11763286_at) / RFU MAGEB2 (11727129_at) / Fold change /veh MAGEB2 (11727129_at) / RFU TMEM200A (11744735_a_at) / Fold change /veh TMEM200A (11744735_a_at) / RFU CCDC152 (11751479_a_at) / Fold change /veh CCDC152 (11751479_a_at) / RFU FAM211A (11726209_a_at) / Fold change /veh FAM211A (11726209_a_at) / RFU RGS16 (11746705_a_at) / Fold change /veh RGS16 (11746705_a_at) / RFU VCAN (11755009_s_at) / Fold change /veh VCAN (11755009_s_at) / RFU RHOB (11743442_s_at) / Fold change /veh RHOB (11743442_s_at) / RFU RGS16 (11720943_a_at) / Fold change /veh RGS16 (11720943_a_at) / RFU RGS16 (11720944_at) / Fold change /veh RGS16 (11720944_at) / RFU, VPS4B / Fold change vs veh, VPS4B / RFU, CREB1 / Fold change vs veh, CREB1 / RFU, DNAJC13 / Fold change vs veh, DNAJC13 / RFU, GNAQ / Fold change vs veh, GNAQ / RFU, CDK5R1 / Fold change vs veh, CDK5R1 / RFU, ZRANB3 / Fold change vs veh, ZRANB3 / RFU, CUL4A / Fold change vs veh, CUL4A / RFU, CCNY / Fold change vs veh, CCNY / RFU, UFL1 / Fold change vs veh, UFL1 / RFU, COG3 / Fold change vs veh, COG3 / RFU, DIAPH2 / Fold change vs veh, DIAPH2 / RFU, SKA2 / Fold change vs veh, SKA2 / RFU, AFF3 / Fold change vs veh, AFF3 / RFU, LMF1 / Fold change vs veh, LMF1 / RFU, IPO11 / Fold change vs veh, IPO11 / RFU, DFFB / Fold change vs veh, DFFB / RFU, FOXP1 / Fold change vs veh, FOXP1 / RFU, CARD8 / Fold change vs veh, CARD8 / RFU, STRN3 / Fold change vs veh, STRN3 / RFU, ADK / Fold change vs veh, ADK / RFU, RASSF2 / Fold change vs veh, RASSF2 / RFU, WIPF1 / Fold change vs veh, WIPF1 / RFU, LARP1B / Fold change vs veh, LARP1B / RFU, RASA1 / Fold change vs veh, RASA1 / RFU, RB1 / Fold change vs veh, RB1 / RFU, PPFIA1 / Fold change vs veh, PPFIA1 / RFU, MAT2A / Fold change vs veh, MAT2A / RFU, CCT5 / Fold change vs veh, CCT5 / RFU, WDR92 / Fold change vs veh, WDR92 / RFU, CUX1 / Fold change vs veh, CUX1 / RFU, TTC7A / Fold change vs veh, TTC7A / RFU, TMEM135 / Fold change vs veh, TMEM135 / RFU, DEPTOR / Fold change vs veh, DEPTOR / RFU, CPM / Fold change vs veh, CPM / RFU, DNAJB6 / Fold change vs veh, DNAJB6 / RFU, CACNA2D3 / Fold change vs veh, CACNA2D3 / RFU, DTX4 / Fold change vs veh, DTX4 / RFU, TFCP2 / Fold change vs veh, TFCP2 / RFU, GMCL1 /// GMCL1P1 / Fold change vs veh, GMCL1 /// GMCL1P1 / RFU, AEBP2 / Fold change vs veh, AEBP2 / RFU, SNHG1 /// SNORD22 /// SNORD25 /// SNORD26 /// SNORD27 /// SNORD28 /// SNORD29 /// SNORD31 / Fold change vs veh, SNHG1 /// SNORD22 /// SNORD25 /// SNORD26 /// SNORD27 /// SNORD28 /// SNORD29 /// SNORD31 / Fold change (Aza/veh), C12orf56 (ProbeSet 11735607_a_at) / Fold change (ACY-1035/veh), C12orf56 (ProbeSet 11735607_a_at) / Fold change (Aza/veh), FGFR1OP (ProbeSet 11751329_s_at) / Fold change (ACY-1035/veh), FGFR1OP (ProbeSet 11751329_s_at) / Fold change (Aza/veh), VPS36 (ProbeSet 11739960_a_at) / Fold change (ACY-1035/veh), VPS36 (ProbeSet 11739960_a_at) / RFU SYPL1 (11715823_x_at) / Fold change /veh SYPL1 (11715823_x_at) / RFU IGFBP7 (11715501_s_at) / Fold change /veh IGFBP7 (11715501_s_at) / RFU REEP3 (11722064_at) / Fold change /veh REEP3 (11722064_at) / RFU IGLL1 (11728026_x_at) / Fold change /veh IGLL1 (11728026_x_at): dose or concentration left out as unconfirmed
Conditions: ProbeSet 11732154_at; LIST B

Nc1ncn([C@@H]2O[C@H](CO)[C@@H](O)[C@H]2O)c(=O)n1 [azacitidine]
RFU, OGT: 289.66 RFU
